Assay: Solubility experiment in cyclohexanone
Assay type: physicochemical
Conditions: normal temperature/pressure, whether 0.1 wt % or more was dissolved
Protocol: In order to confirm the solubility in the solvent used in the solution process of the compounds prepared in the Preparation Examples and the comparative compounds, each of them was dissolved in the solvent cyclohexanone (CHON) under normal temperature/pressure conditions, and it was confirmed whether 0.1 wt % or more was dissolved.

Row | SMILES | Solubility, Solvent CHON
1 | CC1(C)c2cc(-c3cc4ccccc4o3)ccc2-c2ccc(N(c3ccccc3)c3ccc4c5c6ccc7c(c6ccc5n(-c5ccccc5)c4c3)c3ccc(N(c4ccccc4)c4ccc5c(c4)C(C)(C)c4cc(-c6cc8ccccc8o6)ccc4-5)cc3n7-c3ccccc3)cc21 [Comparative Compound I, reference compound] | X (0.1 wt. % or more insoluble)
2 | Cc1cccc(N(c2ccc3c(ccc4c5ccc6c7ccc8cc(N(c9cccc(C)c9)c9cccc%10c9oc9ccccc9%10)ccc8c7n(-c7ccccc7)c6c5n(-c5ccccc5)c34)c2)c2cccc3c2oc2ccccc23)c1 [Compound 5] | ◯ (0.1 wt. % or more soluble)
3 | c1ccc(-n2c3ccccc3c3cc(-c4ccc(N(c5ccc6ccccc6c5)c5ccc6c(ccc7c8c(ccc9c%10ccc%11cc(N(c%12ccc(-c%13ccc%14c(c%13)c%13ccccc%13n%14-c%13ccccc%13)cc%12)c%12ccc%13ccccc%13c%12)ccc%11c%10n(-c%10ccccc%10)c98)n(-c8ccccc8)c67)c5)cc4)ccc32)cc1 [Compound 6] | ◯ (0.1 wt. % or more soluble)
4 | c1ccc(-n2c3ccccc3c3cc(-c4ccc(N(c5ccc6ccccc6c5)c5ccc6c(ccc7c8cc9c%10ccc%11cc(N(c%12ccc(-c%13ccc%14c(c%13)c%13ccccc%13n%14-c%13ccccc%13)cc%12)c%12ccc%13ccccc%13c%12)ccc%11c%10n(-c%10ccccc%10)c9cc8n(-c8ccccc8)c67)c5)cc4)ccc32)cc1 [Compound 7] | ◯ (0.1 wt. % or more soluble)
5 | c1ccc(N(c2ccc3cc(-c4cc5ccccc5o4)ccc3c2)c2ccc3c(ccc4c5cc6c7ccc8cc(N(c9ccccc9)c9ccc%10cc(-c%11cc%12ccccc%12o%11)ccc%10c9)ccc8c7n(-c7ccccc7)c6cc5n(-c5ccccc5)c34)c2)cc1 [Compound 12] | ◯ (0.1 wt. % or more soluble)
6 | c1ccc(N(c2ccc3cc(-c4cc5ccccc5o4)ccc3c2)c2ccc3c(ccc4c5cc6c(cc5n(-c5ccccc5)c34)c3ccc4cc(N(c5ccccc5)c5ccc7cc(-c8cc9ccccc9o8)ccc7c5)ccc4c3n6-c3ccccc3)c2)cc1 [Compound 13] | ◯ (0.1 wt. % or more soluble)
7 | c1ccc(N(c2ccc3cc(-c4cc5ccccc5o4)ccc3c2)c2ccc3c(ccc4c5c6c7ccc8cc(N(c9ccccc9)c9ccc%10cc(-c%11cc%12ccccc%12o%11)ccc%10c9)ccc8c7n(-c7ccccc7)c6ccc5n(-c5ccccc5)c34)c2)cc1 [Compound 14] | ◯ (0.1 wt. % or more soluble)
8 | CC1(C)c2ccccc2-c2ccc(-n3c4cc5c6ccc7cc(N(c8ccccc8)c8ccc9cc(-c%10cc%11ccccc%11o%10)ccc9c8)ccc7c6n(-c6ccc7c(c6)C(C)(C)c6ccccc6-7)c5cc4c4ccc5cc(N(c6ccccc6)c6ccc7cc(-c8cc9ccccc9o8)ccc7c6)ccc5c43)cc21 [Compound 16] | ◯ (0.1 wt. % or more soluble)

Now from value to compound:

Row | Solubility, Solvent CHON | SMILES
9 | ◯ (0.1 wt. % or more soluble) | Cc1cccc(N(c2ccc3c(ccc4c5c(ccc6c7ccc8cc(N(c9cccc(C)c9)c9cccc%10c9oc9ccccc9%10)ccc8c7n(-c7ccccc7)c65)n(-c5ccccc5)c34)c2)c2cccc3c2oc2ccccc23)c1 [Compound 1]
10 | ◯ (0.1 wt. % or more soluble) | Cc1cccc(N(c2ccc3c(ccc4c5cc6c7ccc8cc(N(c9cccc(C)c9)c9cccc%10c9oc9ccccc9%10)ccc8c7n(-c7ccccc7)c6cc5n(-c5ccccc5)c34)c2)c2cccc3c2oc2ccccc23)c1 [Compound 2]
11 | ◯ (0.1 wt. % or more soluble) | Cc1cccc(N(c2ccc3c(ccc4c5cc6c(cc5n(-c5ccccc5)c34)c3ccc4cc(N(c5cccc(C)c5)c5cccc7c5oc5ccccc57)ccc4c3n6-c3ccccc3)c2)c2cccc3c2oc2ccccc23)c1 [Compound 3]
12 | ◯ (0.1 wt. % or more soluble) | Cc1cccc(N(c2ccc3c(ccc4c5c6c7ccc8cc(N(c9cccc(C)c9)c9cccc%10c9oc9ccccc9%10)ccc8c7n(-c7ccccc7)c6ccc5n(-c5ccccc5)c34)c2)c2cccc3c2oc2ccccc23)c1 [Compound 4]
13 | ◯ (0.1 wt. % or more soluble) | c1ccc(-n2c3ccccc3c3cc(-c4ccc(N(c5ccc6ccccc6c5)c5ccc6c(ccc7c8cc9c(cc8n(-c8ccccc8)c67)c6ccc7cc(N(c8ccc(-c%10ccc%11c(c%10)c%10ccccc%10n%11-c%10ccccc%10)cc8)c8ccc%10ccccc%10c8)ccc7c6n9-c6ccccc6)c5)cc4)ccc32)cc1 [Compound 8]
14 | ◯ (0.1 wt. % or more soluble) | c1ccc(-n2c3ccccc3c3cc(-c4ccc(N(c5ccc6ccccc6c5)c5ccc6c(ccc7c8c9c%10ccc%11cc(N(c%12ccc(-c%13ccc%14c(c%13)c%13ccccc%13n%14-c%13ccccc%13)cc%12)c%12ccc%13ccccc%13c%12)ccc%11c%10n(-c%10ccccc%10)c9ccc8n(-c8ccccc8)c67)c5)cc4)ccc32)cc1 [Compound 9]
15 | ◯ (0.1 wt. % or more soluble) | c1ccc(-n2c3ccccc3c3cc(-c4ccc(N(c5ccc6ccccc6c5)c5ccc6c(ccc7c8ccc9c%10ccc%11cc(N(c%12ccc(-c%13ccc%14c(c%13)c%13ccccc%13n%14-c%13ccccc%13)cc%12)c%12ccc%13ccccc%13c%12)ccc%11c%10n(-c%10ccccc%10)c9c8n(-c8ccccc8)c67)c5)cc4)ccc32)cc1 [Compound 10]
16 | ◯ (0.1 wt. % or more soluble) | c1ccc(N(c2ccc3cc(-c4cc5ccccc5o4)ccc3c2)c2ccc3c(ccc4c5c(ccc6c7ccc8cc(N(c9ccccc9)c9ccc%10cc(-c%11cc%12ccccc%12o%11)ccc%10c9)ccc8c7n(-c7ccccc7)c65)n(-c5ccccc5)c34)c2)cc1 [Compound 11]
17 | ◯ (0.1 wt. % or more soluble) | c1ccc(N(c2ccc3cc(-c4cc5ccccc5o4)ccc3c2)c2ccc3c(ccc4c5ccc6c7ccc8cc(N(c9ccccc9)c9ccc%10cc(-c%11cc%12ccccc%12o%11)ccc%10c9)ccc8c7n(-c7ccccc7)c6c5n(-c5ccccc5)c34)c2)cc1 [Compound 15]
18 | ◯ (0.1 wt. % or more soluble) | [2H]c1c([2H])c([2H])c(-n2c3cc4c5ccc6cc(N(c7ccccc7)c7ccc8cc(-c9cc%10ccccc%10o9)ccc8c7)ccc6c5n(-c5c([2H])c([2H])c([2H])c([2H])c5[2H])c4cc3c3ccc4cc(N(c5ccccc5)c5ccc6cc(-c7cc8ccccc8o7)ccc6c5)ccc4c32)c([2H])c1[2H] [Compound 17]
19 | ◯ (0.1 wt. % or more soluble) | CC(C)(C)c1ccc(N(c2ccc3cc(-c4cc5ccccc5o4)ccc3c2)c2ccc3c(ccc4c5cc6c(cc5n(-c5ccc(C(C)(C)C)cc5)c34)c3ccc4cc(N(c5ccc(C(C)(C)C)cc5)c5ccc7cc(-c8cc9ccccc9o8)ccc7c5)ccc4c3n6-c3ccc(C(C)(C)C)cc3)c2)cc1 [Compound 18]

From patent publication US12538701B2, “Compound and organic light emitting device comprising the same” (LG Chem, Ltd., priority 2020, dated 2026)
